Data from ChEMBL document CHEMBL5230105, “Vitamin D and its analogs as anticancer and anti-inflammatory agents” (Eur J Med Chem, 2020).

Assay: Half life in mouse plasma
Type: ADME, cell-free

C[C@H](CC#CC(C)(C)O)[C@H]1CC[C@@H]2/C(=C/C=C3C[C@@H](O)C[C@H](O)C3)CCC[C@@]21C [INECALCITOL]
half-life: 18.3 min
